Assay results: patent publication US6989435B2, “Compounds and methods to inhibit or augment an inflammatory response” (Cambridge University Technical Services Ltd., priority 1997, dated 2006)
Marks after values point to notes of the source that are not given here. Values belong to the molecule of their own block, whether it stands above or below them. Positions of bridges follow the written chain, without caps; N, C: chain ends. Non-standard residues stand in square brackets, D forms with d. Residues, ends and D or L forms follow the SMILES beside them. No end group written: not given here.

What was measured:
[1] = molecular target: T1, Duffy Antigen Receptor for Chemokines (DARC) (Homo sapiens, UniProt Q16570); test: DARC binding: competition with 125I-labeled MCP-1 on red blood cells; conditions: for DUFFY SELECTIVITY: estimated ka for binding to red blood cells divided by average inhibitory ED50 versus each of the chemokines
T1 sequence (Q16570 1-336): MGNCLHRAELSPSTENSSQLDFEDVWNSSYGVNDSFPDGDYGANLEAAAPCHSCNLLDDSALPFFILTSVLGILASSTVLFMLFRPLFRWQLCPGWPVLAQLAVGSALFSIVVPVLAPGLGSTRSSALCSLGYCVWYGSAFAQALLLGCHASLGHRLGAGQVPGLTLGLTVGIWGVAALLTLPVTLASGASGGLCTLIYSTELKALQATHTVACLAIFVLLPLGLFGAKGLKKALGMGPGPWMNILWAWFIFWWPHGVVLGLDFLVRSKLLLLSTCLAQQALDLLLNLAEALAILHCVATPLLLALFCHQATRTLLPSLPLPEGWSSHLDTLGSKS

[2] = tested on: chemokine-induced THP-1 migration (MCP-1, MIP1α, IL8, SDF1α); test: Trans-well THP-1 migration assay, across the chemokines tested; type: cell-based, human; conditions: for CC SPECIFICITY: Table 7, average inhibitory ED50 versus SDF1 and IL8 divided by average inhibitory ED50 versus MCP-1 and MIP1α
Experimental: To determine whether an agent inhibits a chemokine-induced activity, such as macrophage recruitment, varying amounts of the agent are mixed with cells in the presence of a known chemoattractant. […] Chemokine (such as MCP-1, MIP1α, IL8 or SDF-1α), at a concentration known to cause significant migration of THP-1 cells in the trans-well migration assay, is placed in the lower compartment (FIG. 1). […] After incubation, the cells are gently removed from the top of the filter with a pipette, 20 μl of 20 mM EDTA in simple PBS is added into each top well, and incubated for 20 minutes at 4° C. The filter is carefully flushed with media using a gentle flow, and removed. […] The media is carefully aspirated from each well, and the converted dye is solubilized by 20 μl of DMSO. Absorbance of converted dye is measured at a wavelength of 595 nm using an ELISA plate reader. The number of migrated cells in each well is then determined by interpolation of the standard curve (see also Imai et al., J. Biol. Chem., 272, 15036 (1997)). […] The framed filter was aligned with the holes in the corner of the filter frame and placed over the wells. Five×10^4 THP-1 cells in 25 μl of RPMI-1640 culture media were added to the upper compartment. Peptides were dissolved in Milli Q water and then serially diluted in culture medium. In most cases, the serially diluted peptides were added to the upper compartment of the chemotaxis chamber. […] After incubation, the cells were gently removed from the top of the filter with a pipette, 20 μl of 20 mM EDTA in PBS was added into each top well, and the mixture was incubated for 20 minutes at 4° C. The filter was then carefully flushed with media using a gentle flow, and removed. […] The media was carefully aspirated from each well, and the converted dye was solubilized by 20 μl of DMSO. Absorbance of converted dye was measured at a wavelength of 595 nm using an ELISA plate reader. […] Representative chemokines included a beta-chemokine (“CC”), MIP-1α, and two alpha-chemokines (“CXC”), IL-8 and SDF-1α. […]

[3] = tested on: IL8 induced THP-1 migration; test: Trans-well THP-1 migration assay, IL8 as chemoattractant; type: cell-based, human; conditions: Table 6; n.s. = no statistically significant inhibition
Experimental: (§1) FIG. 1 is a schematic of the trans-well migration assay. In most experiments, the peptide (wavy line) is added to the upper well with about 50,000 cells (O). The upper and lower wells are separated by a 5 μm or 8 μm pore size PVP-free membrane (- - - -). Chemokine (●) is added to the lower well. After 4 hours, the number of cells that have migrated through the membrane are measured (◯ in lower well).
(§2) To determine whether an agent inhibits a chemokine-induced activity, such as macrophage recruitment, varying amounts of the agent are mixed with cells in the presence of a known chemoattractant. For example, a range of known concentrations of an agent, e.g., a chemokine peptide, is incubated with a defined number (e.g., 10^4-10^6) of human THP-1 monocyte cells in individual wells of the top compartment of a trans-well plate. […] A standard curve consisting of a two-fold dilution series of THP-1 cells (in 29 μl) is prepared to accurately quantify the number of cells that have migrated. […] Absorbance of converted dye is measured at a wavelength of 595 nm using an ELISA plate reader. The number of migrated cells in each well is then determined by interpolation of the standard curve (see also Imai et al., J. Biol. Chem., 272, 15036 (1997)). […]

[4] = tested on: TGFβ1 induced THP-1 migration; test: Trans-well THP-1 migration assay, TGFβ1 as non-chemokine control chemoattractant; type: cell-based, human; conditions: Table 6; n.s. = no statistically significant inhibition, even at 100 μM
Experimental: (§3) Any method suitable for counting cells can be used, for example, counting with a hemocytometer, incubation of the cells with MTT (see above), or FACS analysis. A negative control assay is also performed, using TGF-β or another non-chemokine chemoattractant (e.g., IL1β or TNFα). To assess whether the agent is cytotoxic, the same concentrations of agent are incubated with THP-1 cells. Agents which 1) are not cytotoxic at levels which inhibit migration, 2) are ineffective at inhibiting the negative control-induced migration, and 3) reduce or inhibit chemokine-induced THP-1 migration, are agents which fall within the scope of the invention.
For this assay, THP-1 cells were maintained at a density of 4×10^5 cells per ml in RPMI-1640 supplemented with 10% fetal calf serum+20 μM 2-mercaptoethanol. Chemotaxis was induced in a 96-well disposable chemotaxis chamber fitted with a […] polycarbonate filter (PVP free, ChemoTX, Neuroprobe Inc., Cabin John). Twenty-nine μl of chemoattractant (recombinant human chemokine; 50 ng/ml, i.e., 5.9 nM) or control (100 ng/ml TGFβ) was added to the lower compartment of each well. The framed filter was aligned with the holes in the corner of the filter frame and placed over the wells. Five×10^4 THP-1 cells in 25 μl of RPMI-1640 culture media were added to the upper compartment. Peptides were dissolved in Milli Q water and then serially diluted in culture medium. […]
After incubation, the cells were gently removed from the top of the filter with a pipette, 20 μl of 20 mM EDTA in PBS was added into each top well, and the mixture was incubated for 20 minutes at 4° C. […] A standard curve was prepared to accurately quantify the number of THP-1 cells that had migrated. […] Absorbance of converted dye was measured at a wavelength of 595 nm using an ELISA plate reader. The number of cells that had migrated in each well was determined by interpolation of the standard curve.
To investigate the receptor specificity of peptide 3 inhibition, the ED50 was determined for peptide 3(1-12)[MCP-1] […]

[5] = tested on: SDF-1α induced THP-1 migration; test: Trans-well THP-1 migration assay, SDF-1α as chemoattractant; type: cell-based, human; conditions: Table 6; n.s. = no statistically significant inhibition
Experimental: as §1, §2

[6] = tested on: MCP-1 induced THP-1 migration; test: Trans-well THP-1 migration assay, MCP-1 as chemoattractant; type: cell-based, human
Experimental: as §1
To determine whether an agent inhibits a chemokine-induced activity, such as macrophage recruitment, varying amounts of the agent are mixed with cells in the presence of a known chemoattractant. For example, a range of known concentrations of an agent, e.g., a chemokine peptide, is incubated with a defined number (e.g., 10^4-10^6) of human THP-1 monocyte cells in individual wells of the top compartment of a trans-well plate. Chemokine (such as MCP-1, MIP1α, IL8 or SDF-1α), at a concentration known to cause significant migration of THP-1 cells in the trans-well migration assay, is placed in the lower compartment (FIG. 1). Cells are then incubated at 37° C. for a period sufficient to allow migration, e.g., 4 hours. After incubation, the cells are gently removed from the top of the filter with a pipette, 20 μl of 20 mM EDTA in simple PBS is added into each top well, and incubated for 20 minutes at 4° C. The filter is carefully flushed with media using a gentle flow, and removed. A standard curve consisting of a two-fold dilution series of THP-1 cells (in 29 μl) is prepared to accurately quantify the number of cells that have migrated. Migrated cells are stained with 3 μl of MTT stock dye solution which is added directly into each well (5 mg/ml in RPMI-1640 without phenol red, Sigma Chemical Co.) and incubated at 37° C. for 4 hours. The media is carefully aspirated from each well, and the converted dye is solubilized by 20 μl of DMSO. Absorbance of converted dye is measured at a wavelength of 595 nm using an ELISA plate reader. The number of migrated cells in each well is then determined by interpolation of the standard curve (see also Imai et al., J. Biol. Chem., 272, 15036 (1997)).
as §3
For this assay, THP-1 cells were maintained at a density of 4×10^5 cells per ml in RPMI-1640 supplemented with 10% fetal calf serum+20 μM 2-mercaptoethanol. Chemotaxis was induced in a 96-well disposable chemotaxis chamber fitted with a […] polycarbonate filter (PVP free, ChemoTX, Neuroprobe Inc., Cabin John). Twenty-nine μl of chemoattractant (recombinant human chemokine; 50 ng/ml, i.e., 5.9 nM) or control (100 ng/ml TGFβ) was added to the lower compartment of each well. The framed filter was aligned with the holes in the corner of the filter frame and placed over the wells. Five×10^4 THP-1 cells in 25 μl of RPMI-1640 culture media were added to the upper compartment. Peptides were dissolved in Milli Q water and then serially diluted in culture medium. In most cases, the serially diluted peptides were added to the upper compartment of the chemotaxis chamber. The chamber was incubated at 37° C. in a humidified atmosphere of 5% CO2 for 4 hours.
After incubation, the cells were gently removed from the top of the filter with a pipette, 20 μl of 20 mM EDTA in PBS was added into each top well, and the mixture was incubated for 20 minutes at 4° C. The filter was then carefully flushed with media using a gentle flow, and removed. […]

Kd [1]: > 50 µM
Molecule: NCCCC[C@H](NC(=O)[C@H](CCC(N)=O)NC(=O)[C@@H](N)CCCCN)C(=O)O [KQK]

Molecule: CC[C@H](C)[C@H](NC(=O)[C@H](C)NC(=O)[C@H](CC(=O)O)NC(=O)[C@@H]1CCCN1C(=O)[C@H](CCC(N)=O)NC(=O)[C@H](C)N)C(=O)N[C@@H](CC(N)=O)C(=O)N[C@@H](C)C(=O)N1CCC[C@H]1C(=O)N[C@H](C(=O)N[C@H](C(=O)N[C@@H](CS)C(=O)N[C@@H](CS)C(=O)O)[C@@H](C)O)C(C)C [Peptide 1] (H-AQPDAINAPVTCC-OH)
Kd [1]: > 100 µM

DUFFY SELECTIVITY ([1]; Table 7): 8.82
Molecule: -CQVWKQKPDA C- ([dC][dQ][dV][dW][dK][dQ][dK][dP][dD][dA][dC]; disulfide 1-11) [CRD-Cys13pep3[3-12]]

Molecule: APG [reference compound]
inhibition of THP-1 cell migration induced by MCP-1, MIP1α, IL-8 and SDF1α, in words [2]: None of these significantly inhibited

Molecule: CADPKQKWVQ [Peptide 3[3-12]]
DUFFY SELECTIVITY ([1]; Table 7): 1.21 | CC SPECIFICITY [2]: 1.2

Molecule: CLDPKKEWIQ [SEE]
ED50 versus IL8, THP-1 migration [3]: n.s. | ED50 versus TGFβ1, THP-1 migration [4]: n.s. | ED50 versus SDF1α, THP-1 migration [5]: n.s. | ED50 versus MCP1, THP-1 migration ([6]; Table 6, n.s. = no statistically significant inhibition): n.s. | specificity for the cognate chemokine over the other chemokines tested [2]: > 100 fold | CC SPECIFICITY [2]: >100

DUFFY SELECTIVITY ([1]; Table 7): 4.59 | IC50 ([6]; derivatives of leu4ile11peptide 3, read-out: MCP-1 inhibitory activity in the THP-1 transwell assay): 0.2 to 0.4 µM
Molecule: CQVWKQKPDAC [LRD-Cys13leu4ile11pep3[3-12]]

Molecule: DYFETSSQCSKPGV [Pep2[MIP1α]]
Kd [1]: > 50 µM | DUFFY SELECTIVITY (peptide 2 family) ([1]; Table 7, ka for binding to red blood cells divided by the ka for binding THP-1 cells): >100^d

Molecule: EICADP [Peptide 3[1-6]]
CC SPECIFICITY [2]: 0.7

Molecule: EICADPKQKWIQ [Ile11peptide 3]
selectivity ratio (CC versus CXC chemokines) ([2]; >1 = greater inhibition of CC chemokines, <1 = of CXC chemokines): 0.9 | CC SPECIFICITY [2]: 0.9

DUFFY SELECTIVITY ([1]; Table 7): 0.59
Molecule: EICADPSEEWVQ [Ser7Glu8Glu9pep 3]
CC SPECIFICITY [2]: 1.6
